Experimental data from ChEMBL document CHEMBL1201862, “PubChem BioAssay data set” (2004).
Activity calls are given as the source filed them. Cut-off read from the data, not from the text of the source: actives have a measured IC50 and inactives only a lower limit.

These molecules were tested against Envelope glycoprotein gp160 (Human immunodeficiency virus 1, UniProt Q6QLK5) (assay: cell-free HIV fusion peptide-binding blockers – biochemical, uHTS, fluorescence dequenching, […] (AID 1986)).
Sequence of Envelope glycoprotein gp160 (Q6QLK5 whole entry, the tested form may be a part): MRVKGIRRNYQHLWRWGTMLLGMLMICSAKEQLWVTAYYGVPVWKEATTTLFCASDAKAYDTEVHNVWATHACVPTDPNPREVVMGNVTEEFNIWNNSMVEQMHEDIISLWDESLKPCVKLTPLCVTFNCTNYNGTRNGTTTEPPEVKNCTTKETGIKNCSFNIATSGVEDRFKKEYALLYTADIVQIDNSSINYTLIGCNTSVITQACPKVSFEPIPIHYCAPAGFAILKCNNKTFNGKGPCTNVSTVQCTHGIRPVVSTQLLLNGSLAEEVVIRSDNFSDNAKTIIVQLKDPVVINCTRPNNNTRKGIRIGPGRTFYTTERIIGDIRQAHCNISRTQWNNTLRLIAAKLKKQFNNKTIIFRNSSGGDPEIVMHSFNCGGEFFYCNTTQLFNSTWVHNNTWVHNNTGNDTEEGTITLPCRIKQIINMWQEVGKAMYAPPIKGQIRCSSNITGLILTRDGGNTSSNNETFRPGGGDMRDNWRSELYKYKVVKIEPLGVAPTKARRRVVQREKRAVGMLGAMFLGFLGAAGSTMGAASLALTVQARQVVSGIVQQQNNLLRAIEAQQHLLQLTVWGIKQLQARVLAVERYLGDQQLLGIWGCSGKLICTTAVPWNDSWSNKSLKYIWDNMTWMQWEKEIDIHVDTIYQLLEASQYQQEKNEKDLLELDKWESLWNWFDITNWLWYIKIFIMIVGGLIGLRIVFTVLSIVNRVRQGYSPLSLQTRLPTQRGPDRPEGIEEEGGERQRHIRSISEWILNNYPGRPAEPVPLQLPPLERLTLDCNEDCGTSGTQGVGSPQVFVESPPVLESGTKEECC
In the case of `CCS(=O)(=O)C1=NSC2=NC(=O)/C(=C\c3ccc(OS(=O)(=O)c4ccccc4)c(OC)c3)C(=N)N21`, the IC50 is reported as 16.8 µM (active). In the case of `O=C(NN1C(=O)/C(=C/c2ccc(O)cc2)SC1=S)c1ccccc1O`, the IC50 is reported as 23.6 µM (active). For `CCOc1ccc2nc(NC(=O)CSc3nc(O)c(C#N)c(-c4ccccc4)n3)sc2c1`, the IC50 was 11.1 µM (active).
